This is an account of results in patent US6395723B2, “Method of providing coginition enhancement with 5α-pregnan-3β-ol-20-one sulfate” (Wyeth, priority 1997, dated 2002).

pIC50: −log10 of the molar value. Where a name gives a salt, the structure may show the parent alone.

What is called pIC50 is the negative decadic logarithm of the IC50, by convention in mol/L. Lower therefore signals a high IC50.

Common to all, as to type: cell-based
Assay [1] concerns potassium channel currents. Put plainly: Whole cell recording of potassium currents from cultured hippocampal neurons. The settings on record: 2 μM, p=0.0006. As for the experimental part: (§1) The neuroprotective and cognition enhancing effects of the compounds of this invention were evaluated in an in vitro standard pharmacological test procedure which measured the effects of 5α-pregnan-3β-ol-20-one 3-sulfate ester sodium salt, as a representative compound of this invention, on calcium and potassium channel currents. Briefly, the following procedure was used.
(§2) Whole cell recording techniques were used to record calcium and potassium currents from cultured hippocampal neurons. The compounds to be evaluated were made fresh each day in a 400 μM ethanol stock solution. The test compounds were diluted in saline to obtain a final concentration of 2 μM. The amplitude of calcium or potassium currents in control, test compound, and washout solutions was measured from at least 10 current traces for each condition. To compensate for rundown of the calcium current with time, control and washout currents were averaged. The current amplitude with drug was divided by the averaged control and washout current to determine the percent change. The means, standard deviations and errors for each test compound were calculated and significance from control was determined using the paired T-Test.

Assay [2] addresses T1, progesterone receptors (Homo sapiens, UniProt P06401).
T1 construct: endogenous in cells; host or cells: T47D human breast cancer cells
T1 sequence (P06401 1-933): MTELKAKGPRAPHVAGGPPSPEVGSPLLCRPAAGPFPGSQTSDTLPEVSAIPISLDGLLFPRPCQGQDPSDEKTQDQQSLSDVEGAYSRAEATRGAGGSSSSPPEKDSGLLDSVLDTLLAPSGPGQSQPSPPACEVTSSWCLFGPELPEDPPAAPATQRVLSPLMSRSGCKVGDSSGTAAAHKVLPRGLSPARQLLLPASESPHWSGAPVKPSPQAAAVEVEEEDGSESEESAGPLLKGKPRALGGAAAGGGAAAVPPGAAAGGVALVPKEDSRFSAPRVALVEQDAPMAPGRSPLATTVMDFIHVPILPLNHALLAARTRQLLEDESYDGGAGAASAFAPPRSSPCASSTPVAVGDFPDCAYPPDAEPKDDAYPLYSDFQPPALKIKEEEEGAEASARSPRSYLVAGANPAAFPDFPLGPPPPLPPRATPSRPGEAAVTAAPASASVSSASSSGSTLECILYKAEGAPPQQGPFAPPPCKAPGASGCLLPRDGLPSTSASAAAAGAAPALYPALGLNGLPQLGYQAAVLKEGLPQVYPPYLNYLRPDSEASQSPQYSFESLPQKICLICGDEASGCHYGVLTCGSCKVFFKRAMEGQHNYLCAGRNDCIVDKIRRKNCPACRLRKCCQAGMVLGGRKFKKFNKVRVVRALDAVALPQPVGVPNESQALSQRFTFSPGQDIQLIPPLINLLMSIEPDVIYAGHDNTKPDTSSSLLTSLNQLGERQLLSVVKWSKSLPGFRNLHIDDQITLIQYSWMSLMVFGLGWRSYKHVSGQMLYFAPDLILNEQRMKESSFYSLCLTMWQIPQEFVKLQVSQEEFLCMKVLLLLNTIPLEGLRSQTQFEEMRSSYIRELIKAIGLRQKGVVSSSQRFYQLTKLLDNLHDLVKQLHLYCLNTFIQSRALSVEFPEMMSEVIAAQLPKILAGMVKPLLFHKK
Put plainly: Stimulation of alkaline phosphatase enzyme activity in T47D cells (progestational activity). The settings on record: for concentrations required for activity (alkaline phosphatase induction): T47D cells, reference progestins. An excerpt:
In this test procedure, the progestational activity of a compound is quantified based on its stimulation of alkaline phosphatase enzyme activity in T47D cells, a human breast cancer cell line which expresses high levels of progesterone receptors. This is a well established test procedure in which both the progestin receptors and the response stimulated by activated progestin receptors are endogenous to the cells. Cells are pre-conditioned in low serum medium for one day and then treated with test compounds.

Assay [3] concerns calcium channel currents. As to the kind of experiment: Whole cell recording of calcium currents from cultured hippocampal neurons. The conditions noted are these: 2 μM, p=0.044. As for the experimental part: as §1, §2

As for `CC(O)C1CCC2C3CCC4CC(O)CCC4(C)C3CCC12C` (stereo not drawn) [5α-Pregnan-3β,20β-diol], the “increase of potassium channel currents versus control” value in assay [1] was found to be 21.76±2.40%.
Molecule `CC(=O)[C@H]1CC[C@H]2[C@@H]3CC[C@H]4C[C@@H](OS(=O)(=O)O)CC[C@]4(C)[C@H]3CC[C@]12C` [5α-pregnan-3β-ol-20-one 3-sulfate ester sodium salt] showed a pIC50 in assay [2] of 5.30. Also, the “decrease of calcium channel currents versus control” value in assay [3] is on record as 4.64±1.64%.
Regarding `CC(=O)O[C@]1(C(C)=O)CC[C@H]2[C@@H]3C[C@H](C)C4=CC(=O)CC[C@]4(C)[C@H]3CC[C@@]21C` [medroxyprogesterone acetate], in assay [2], the “concentrations required for activity (alkaline phosphatase induction)” value is on record as “low nanomolar”.
Still for that read-out and setting: in the case of `CC(=O)[C@H]1CC[C@H]2[C@@H]3CCC4=CC(=O)CC[C@]4(C)[C@H]3CC[C@]12C` [progesterone] it was “low nanomolar”.
